# Reference: patent publication US10556907B2 (AbbVie Inc., priority 2015, dated 2020)
# Structures can show the parent of a compound that is named as a salt.
# How the values were obtained:
# Test in all cases: Method 1: intracellular Ca2+ release (FLIPR, Calcium 5) in recombinant CHO-K1 cells
# Type in all cases: cell-based
# human S1PR1 receptor = molecular target: T1, human S1PR1 receptor (Homo sapiens, UniProt P21453); conditions: (1): determined with method 1; read-out: S1P1 EC50
# T1 construct: host or cells: CHO-K1
# In short: (§1)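 For antagonist mode, compounds were pre-incubated 10 min before phospho-fingolimod at EC80; in agonist mode, compounds were added directly to Calcium 5-loaded CHO-K1 cells co-expressing Gq/i5. Fluorescence was measured on FLIPR, and EC50 was fitted relative to the phospho-fingolimod curve.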
# human S1PR5 receptor = molecular target: T2, human S1PR5 receptor (Homo sapiens, UniProt Q9H228); conditions: agonist potency, determined with method 1 (symbols A-D); read-out: S1P5 EC50 range
# T2 construct: host or cells: CHO-K1
# In short: as §1
# human S1PR3 receptor = molecular target: T3, human S1PR3 receptor (Homo sapiens, UniProt Q99500); conditions: (1): determined with method 1; read-out: S1P3 EC50
# T3 construct: host or cells: CHO-K1
# In short: as §1
# human S1PR4 receptor = molecular target: T4, human S1PR4 receptor (Homo sapiens, UniProt O95977); conditions: (1): determined with method 1; read-out: S1P4 EC50
# T4 construct: host or cells: CHO-K1
# T4 sequence (O95977 1-384): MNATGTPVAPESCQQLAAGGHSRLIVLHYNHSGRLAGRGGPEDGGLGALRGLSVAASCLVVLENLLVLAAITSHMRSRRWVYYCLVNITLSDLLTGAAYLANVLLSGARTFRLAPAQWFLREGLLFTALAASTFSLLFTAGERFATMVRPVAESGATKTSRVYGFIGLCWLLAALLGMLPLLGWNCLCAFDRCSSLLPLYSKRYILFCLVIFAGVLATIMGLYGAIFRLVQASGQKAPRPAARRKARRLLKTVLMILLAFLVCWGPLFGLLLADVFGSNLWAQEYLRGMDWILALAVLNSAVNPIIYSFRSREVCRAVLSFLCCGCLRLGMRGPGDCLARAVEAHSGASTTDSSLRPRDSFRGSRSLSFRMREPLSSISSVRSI
# In short: as §1
# T3 sequence (Q99500 whole entry): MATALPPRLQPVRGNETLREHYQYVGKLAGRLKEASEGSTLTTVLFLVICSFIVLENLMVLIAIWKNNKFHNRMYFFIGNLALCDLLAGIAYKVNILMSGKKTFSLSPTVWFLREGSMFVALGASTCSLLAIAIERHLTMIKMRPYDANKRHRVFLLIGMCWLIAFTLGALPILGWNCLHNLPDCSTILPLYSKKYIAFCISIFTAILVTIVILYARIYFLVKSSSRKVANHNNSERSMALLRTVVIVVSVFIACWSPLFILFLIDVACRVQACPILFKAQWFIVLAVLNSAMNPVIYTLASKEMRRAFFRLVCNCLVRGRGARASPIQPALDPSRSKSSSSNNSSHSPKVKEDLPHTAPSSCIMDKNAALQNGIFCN
# T2 sequence (Q9H228 whole entry): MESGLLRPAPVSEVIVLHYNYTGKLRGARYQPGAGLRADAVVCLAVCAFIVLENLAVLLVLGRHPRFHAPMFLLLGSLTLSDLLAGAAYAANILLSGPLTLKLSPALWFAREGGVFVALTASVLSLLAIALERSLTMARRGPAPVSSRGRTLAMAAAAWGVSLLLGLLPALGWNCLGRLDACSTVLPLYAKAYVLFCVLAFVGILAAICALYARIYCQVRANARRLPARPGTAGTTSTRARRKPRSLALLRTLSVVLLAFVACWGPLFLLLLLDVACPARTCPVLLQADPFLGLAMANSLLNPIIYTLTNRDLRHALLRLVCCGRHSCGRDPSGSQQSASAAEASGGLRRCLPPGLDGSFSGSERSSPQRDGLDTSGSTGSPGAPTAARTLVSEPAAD
# T1 sequence (P21453 whole entry): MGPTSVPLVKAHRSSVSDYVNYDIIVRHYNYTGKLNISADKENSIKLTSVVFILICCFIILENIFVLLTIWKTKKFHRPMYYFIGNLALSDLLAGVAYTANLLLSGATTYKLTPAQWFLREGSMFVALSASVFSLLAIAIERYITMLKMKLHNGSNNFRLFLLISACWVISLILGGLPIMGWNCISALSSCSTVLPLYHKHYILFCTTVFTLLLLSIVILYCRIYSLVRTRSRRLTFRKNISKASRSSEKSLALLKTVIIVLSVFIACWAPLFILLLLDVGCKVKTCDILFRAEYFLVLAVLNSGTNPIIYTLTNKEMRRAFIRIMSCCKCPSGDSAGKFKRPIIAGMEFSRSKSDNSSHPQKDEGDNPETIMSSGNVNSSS
SMILES,EC50 (human S1PR1 receptor) [nM],EC50 (human S1PR5 receptor) [nM],EC50 (human S1PR3 receptor) [nM],EC50 (human S1PR4 receptor) [nM]
"Cc1cc(-c2ccc3c(n2)CCN(CCC(=O)O)C3)ccc1OCc1ccc(Cl)cc1 [Compound 169, 3-(2-(4-((4-chlorobenzyl)oxy)-3-methylphenyl)-7,8-dihydro-1,6-naphthyridin-6(5H)-yl)propanoic acid]",> 1000,< 10,> 1000,> 1000
"O=C(O)CCCN1CCc2nc(-c3ccc(OCc4ccc(Cl)cc4)cc3)ncc2C1 [Compound 40, 4-(2-(4-((4-chlorobenzyl)oxy)phenyl)-7,8-dihydropyrido[4,3-d]pyrimidin-6(5H)-yl)butanoic acid]",> 1000,< 10,> 1000,> 1000
"O=C(O)CN1CCc2nc(-c3ccc(OCc4c(Cl)cccc4Cl)cc3)ncc2C1 [Compound 34, 2-(2-(4-((2,6-dichlorobenzyl)oxy)phenyl)-7,8-dihydropyrido[4,3-d]pyrimidin-6(5H)-yl)acetic acid]",< 1000,100 to 1000,< 1000,< 1000
"Cc1cc(-c2cc3c(cn2)CN(CCC(=O)O)CC3)ccc1OCc1ccc(Cl)cc1 [Compound 172, 3-(6-(4-((4-chlorobenzyl)oxy)-3-methylphenyl)-3,4-dihydro-2,7-naphthyridin-2(1H)-yl)propanoic acid]",> 1000,< 10,> 1000,> 1000
"O=C(O)CCN1CCc2nc(-c3ccc(OCc4cccc(C(F)F)c4)cc3)ccc2C1 [Compound 159, 3-(2-(4-((3-difluoromethylbenzyl)oxy)phenyl)-7,8-dihydro-1,6-naphthyridin-6(5H)-yl)propanoic acid]",> 1000,< 10,> 1000,> 1000
"CC(CC(=O)O)CN1CCc2nc(-c3ccc(OCc4cccc(F)c4)cc3)ncc2C1 (centres unmarked) [Compound 227, 4-(2-(4-((3-fluorobenzyl)oxy)phenyl)-7,8-dihydropyrido[4,3-d]pyrimidin-6(5H)-yl)-3-methylbutanoic acid]",> 1000,< 10,> 1000,< 1000
"CCOc1ccc(C#Cc2ccc3c(n2)CCN(C2CC(C(=O)O)C2)C3)cc1 (centres unmarked) [Compound 122, 3-(2-((4-ethoxyphenyl)ethynyl)-7,8-dihydro-1,6-naphthyridin-6(5H)-yl)cyclobutanecarboxylic acid]",> 1000,1000 to 10000,> 1000,> 1000
"O=C(O)C1CC(N2CCc3nc(C#Cc4ccccc4Cl)ccc3C2)C1 (centres unmarked) [Compound 126, 3-(2-((2-chlorophenyl)ethynyl)-7,8-dihydro-1,6-naphthyridin-6(5H)-yl)cyclobutanecarboxylic acid]",> 1000,1000 to 10000,> 1000,> 1000
"O=C(O)CN1CCc2nc(Cc3ccccc3)ncc2C1 [Compound 24, 2-(2-benzyl-7,8-dihydropyrido[4,3-d]pyrimidin-6(5H)-yl)acetic acid]",> 1000,1000 to 10000,> 1000,> 1000
"O=C(O)CCN1CCc2nc(-c3ccc(OCc4ccc(Cl)cc4)cc3)ncc2C1 [Compound 74, 3-(2-(4-((4-chlorobenzyl)oxy)phenyl)-7,8-dihydropyrido[4,3-d]pyrimidin-6(5H)-yl)propanoic acid]",> 1000,< 10,> 1000,> 1000
"CC(CC(=O)O)CN1CCc2nc(-c3ccc(CCc4ccc(Cl)cc4)cc3)ncc2C1 (centres unmarked) [Compound 244, 4-(2-(4-(4-chlorophenethyl)phenyl)-7,8-dihydropyrido[4,3-d]pyrimidin-6(5H)-yl)-3-methylbutanoic acid]",> 1000,< 10,> 1000,> 1000
"CSc1ccc(COc2ccc(-c3ncc4c(n3)CCN(CC(C)CC(=O)O)C4)cc2)cc1 (centres unmarked) [Compound 257, 3-methyl-4-[2-[4-[(4-methylsulfanylphenyl)methoxy]phenyl]-7,8-dihydro-5H-pyrido[4,3-d]pyrimidin-6-yl]butanoic acid 2,2,2-trifluoroacetic acid salt]",> 1000,10 to 100,> 1000,> 1000
"CC(CCC(=O)O)N1CCc2nc(-c3ccc(OCc4ccccc4)cc3)ncc2C1 (centres unmarked) [Compound 64, 4-(2-(4-(benzyloxy)phenyl)-7,8-dihydropyrido[4,3-d]pyrimidin-6(5H)-yl)pentanoic acid]",> 1000,< 10,> 1000,> 1000
"O=C(O)CCN1CCc2nc(-c3ccc(OCc4cccc(Cl)c4)cc3)cnc2C1 [Compound 179, 3-(2-(4-((3-chlorobenzyl)oxy)phenyl)-7,8-dihydropyrido[3,4-b]pyrazin-6(5H)-yl)propanoic acid]",> 1000,< 10,< 1000,> 1000
"O=C(O)CCCN1CCc2nc(Cc3c(F)cccc3F)ncc2C1 [Compound 51, 4-(2-(2,6-difluorobenzyl)-7,8-dihydropyrido[4,3-d]pyrimidin-6(5H)-yl)butanoic acid]",> 1000,1000 to 10000,> 1000,> 1000
"CCc1cccc(Cl)c1COc1ccc(-c2ncc3c(n2)CCN(CC(=O)O)C3)cc1 [Compound 35, 2-(2-(4-((2-chloro-6-ethylbenzyl)oxy)phenyl)-7,8-dihydropyrido[4,3-d]pyrimidin-6(5H)-yl)acetic acid]",< 1000,100 to 1000,< 1000,< 1000
"Cc1cc(-c2ncc3c(n2)CCN(CC(C)CC(=O)O)C3)ccc1OCc1ccccc1 (centres unmarked) [Compound 251, 4-(2-(4-(benzyloxy)-3-methylphenyl)-7,8-dihydropyrido[4,3-d]pyrimidin-6(5H)-yl)-3-methylbutanoic acid]",> 1000,< 10,> 1000,> 1000
"CC(CC(=O)O)CN1CCc2nc(-c3ccc(OCc4cccc(Cl)c4)cc3F)ncc2C1 (centres unmarked) [Compound 232, 4-(2-(4-((3-chlorobenzyl)oxy)-2-fluorophenyl)-7,8-dihydropyrido[4,3-d]pyrimidin-6(5H)-yl)-3-methylbutanoic acid]",> 1000,< 10,> 1000,> 1000
"Cc1cc(-c2ccc3c(n2)CCN(CCCC(=O)O)C3)ccc1OCc1ccccc1 [Compound 114, 4-(2-(4-(benzyloxy)-3-methylphenyl)-7,8-dihydro-1,6-naphthyridin-6(5H)-yl)butanoic acid]",> 1000,< 10,> 1000,> 1000
"O=C(O)C1CC(N2CCc3nc(Cc4c(F)cccc4F)ncc3C2)C1 (centres unmarked) [Compound 53, 3-(2-(2,6-difluorobenzyl)-7,8-dihydropyrido[4,3-d]pyrimidin-6(5H)-yl)cyclobutanecarboxylic acid]",> 1000,1000 to 10000,> 1000,> 1000
"CC(CC(=O)O)CN1CCc2nc(-c3ccc(OCc4cccc(C(F)(F)F)c4)cc3)ncc2C1 (centres unmarked) [Compound 238, 3-methyl-4-(2-(4-((3-(trifluoromethyl)benzyl)oxy)phenyl)-7,8-dihydropyrido[4,3-d]pyrimidin-6(5H)-yl)butanoic acid]",< 1000,< 10,> 1000,< 1000
"CC(C)c1ccc(C#Cc2ccc3c(n2)CCN(C2CC(C(=O)O)C2)C3)cc1 (centres unmarked) [Compound 124, 3-(2-((4-isopropylphenyl)ethynyl)-7,8-dihydro-1,6-naphthyridin-6(5H)-yl)cyclobutanecarboxylic acid]",> 1000,1000 to 10000,> 1000,> 1000
"Cc1cc(COc2ccc(-c3ccc4c(n3)CCN(CCC(=O)O)C4)cc2)cc(OC(F)(F)F)c1 [Compound 160, 3-(2-(4-((3-trifluoromethoxy-5-(methyl)benzyl)oxy)phenyl)-7,8-dihydro-1,6-naphthyridin-6(5H)-yl)propanoic acid]",> 1000,10 to 100,> 1000,> 1000
"O=C(O)C1CC(N2CCc3nc(C#Cc4cccc(Cl)c4)ccc3C2)C1 (centres unmarked) [Compound 128, 3-(2-((3-chlorophenyl)ethynyl)-7,8-dihydro-1,6-naphthyridin-6(5H)-yl)cyclobutanecarboxylic acid]",> 1000,1000 to 10000,> 1000,> 1000
"O=C(O)CCN1CCc2cc(-c3ccc(OCc4cccc(Cl)c4)cc3)ncc2C1 [Compound 175, 3-(6-(4-((3-chlorobenzyl)oxy)phenyl)-3,4-dihydro-2,7-naphthyridin-2(1H)-yl)propanoic acid]",> 1000,< 10,> 1000,> 1000
"O=C(O)CCN1CCc2nc(-c3ccc(OCc4cccc(F)c4)cc3)c(F)cc2C1 [Compound 193, 3-(2-(4-((3-fluorobenzyl)oxy)phenyl)-3-fluoro-7,8-dihydro-1,6-naphthyridin-6(5H)-yl)propanoic acid]",> 1000,< 10,> 1000,> 1000
